Data taken from PubChem BioAssay (NCI).
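All cell lines were grown in 96-well plates and treated with compound for 48 hours. Here, GI50 denotes the concentration required for 50% inhibition of growth. TGI is the concentration that stops growth completely.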

Legend:
Assay in all cases: growth of human tumour cells (NCI), 48 h
[1] = tested on: HT29 colon
[2] = tested on: NCI-H23 lung
[3] = tested on: SK-MEL-5 melanoma
[4] = tested on: SNB-75 CNS
[5] = tested on: 786-0 renal
[6] = tested on: EKVX NSCLC
[7] = tested on: A498 renal
[8] = tested on: OVCAR-4 ovarian
[9] = tested on: BT-549 breast
[10] = tested on: K-562 leukemia
[11] = tested on: OVCAR-3 ovarian
[12] = tested on: SF-268 CNS
[13] = tested on: UACC-257 melanoma
[14] = tested on: RXF 393 renal
[15] = tested on: SR leukemia
[16] = tested on: NCI-H522 lung
[17] = tested on: SF-539 CNS
[18] = tested on: HCC-2998 colon
[19] = tested on: OVCAR-8 ovarian
[20] = tested on: HCT-116 colon
[21] = tested on: TK-10 renal
[22] = tested on: RPMI-8226 leukemia
[23] = tested on: U251 CNS
[24] = tested on: SK-OV-3 ovarian
[25] = tested on: CCRF-CEM leukemia
[26] = tested on: NCI/ADR-RES ovarian
[27] = tested on: A549 NSCLC
[28] = tested on: UO-31 renal
[29] = tested on: SK-MEL-28 melanoma
[30] = tested on: SNB-19 CNS
[31] = tested on: MALME-3M melanoma
[32] = tested on: OVCAR-5 ovarian
[33] = tested on: SN12C renal
[34] = tested on: MDA-MB-435
[35] = tested on: HOP-62 NSCLC
[36] = tested on: MOLT-4 leukemia
[37] = tested on: M14 melanoma
[38] = tested on: ACHN renal
[39] = tested on: KM12 colon
[40] = tested on: SW-620 colon
[41] = tested on: MCF7 breast
[42] = tested on: HL-60(TB) leukemia
[43] = tested on: T-47D breast
[44] = tested on: NCI-H226 lung
[45] = tested on: HCT-15 colon
[46] = tested on: CAKI-1 renal
[47] = tested on: IGROV1 ovarian
[48] = tested on: DU-145 prostate
[49] = tested on: HOP-92 NSCLC
[50] = tested on: UACC-62 melanoma
[51] = tested on: SK-MEL-2 melanoma
[52] = tested on: LOX IMVI melanoma
[53] = tested on: SF-295 CNS
[54] = tested on: MDA-MB-231 breast
[55] = tested on: PC-3 prostate
[56] = tested on: HS 578T breast
[57] = tested on: COLO 205 colon
[58] = tested on: NCI-H460 lung
[59] = tested on: MDA-MB-468 breast

Structure (SMILES): Nc1ccc(-c2ccc3ncnc(N4CCc5cc(F)c(Cl)cc54)c3c2)cn1
- GI50 [1]: 3.26 µM
- TGI [1]: 23 µM
- GI50 [2]: 5.26 µM
- TGI [2]: > 100 µM
- GI50 [3]: 3.07 µM
- TGI [3]: 14.4 µM
- GI50 [4]: 0.545 µM
- TGI [4]: 4.21 µM
- GI50 [5]: 1.82 µM
- TGI [5]: 14.7 µM
- GI50 [6]: 1.26 µM
- TGI [6]: 13.8 µM
- GI50 [7]: 0.185 µM
- TGI [7]: 2.56 µM
- GI50 [8]: 3.11 µM
- TGI [8]: 18.8 µM
- GI50 [9]: 1.35 µM
- TGI [9]: 8.24 µM
- GI50 [10]: 6.24 µM
- TGI [10]: > 100 µM
- GI50 [11]: 1.35 µM
- TGI [11]: 12.3 µM
- GI50 [12]: 2.2 µM
- TGI [12]: 50.2 µM
- GI50 [13]: 5.76 µM
- TGI [13]: 23.1 µM
- GI50 [14]: 1.14 µM
- TGI [14]: 5.22 µM
- GI50 [15]: 3.24 µM
- TGI [15]: > 100 µM
- GI50 [16]: 2.37 µM
- TGI [16]: 19.4 µM
- GI50 [17]: 2.83 µM
- TGI [17]: 13.3 µM
- GI50 [18]: 4.3 µM
- TGI [18]: 66.1 µM
- GI50 [19]: 4.31 µM
- TGI [19]: > 100 µM
- GI50 [20]: 3.91 µM
- TGI [20]: 28.3 µM
- GI50 [21]: 0.504 µM
- TGI [21]: 9.78 µM
- GI50 [22]: 3.51 µM
- TGI [22]: 70.1 µM
- GI50 [23]: 3.3 µM
- TGI [23]: 24.6 µM
- GI50 [24]: 2.18 µM
- TGI [24]: 7.09 µM
- GI50 [25]: 3.31 µM
- TGI [25]: 26.2 µM
- GI50 [26]: 3.2 µM
- TGI [26]: 35.5 µM
- GI50 [27]: 1.55 µM
- TGI [27]: 15.3 µM
- GI50 [28]: 0.823 µM
- TGI [28]: 14.5 µM
- GI50 [29]: 2.76 µM
- TGI [29]: 15.3 µM
- GI50 [30]: 2.86 µM
- TGI [30]: 47.8 µM
- GI50 [31]: 1.57 µM
- TGI [31]: 10.1 µM
- GI50 [32]: 2.32 µM
- TGI [32]: > 100 µM
- GI50 [33]: 2.11 µM
- TGI [33]: > 100 µM
- GI50 [34]: 3.67 µM
- TGI [34]: 16.9 µM
- GI50 [35]: 1.5 µM
- TGI [35]: 27.3 µM
- GI50 [36]: 2.68 µM
- TGI [36]: 8.4 µM
- GI50 [37]: 3.69 µM
- TGI [37]: 18 µM
- GI50 [38]: 0.739 µM
- TGI [38]: 12.9 µM
- GI50 [39]: 6.73 µM
- TGI [39]: 75.5 µM
- GI50 [40]: 5.96 µM
- TGI [40]: 27.5 µM
- GI50 [41]: 1.77 µM
- TGI [41]: 12.8 µM
- GI50 [42]: 2.61 µM
- TGI [42]: 20.8 µM
- GI50 [43]: 0.895 µM
- TGI [43]: 10.2 µM
- GI50 [44]: 1.59 µM
- TGI [44]: 40.8 µM
- GI50 [45]: 3.49 µM
- TGI [45]: 30.3 µM
- GI50 [46]: 1.11 µM
- TGI [46]: 12.7 µM
- GI50 [47]: 0.639 µM
- TGI [47]: 2.88 µM
- GI50 [48]: 1.61 µM
- TGI [48]: 15.8 µM
- GI50 [49]: 2.37 µM
- TGI [49]: 20.7 µM
- GI50 [50]: 1.91 µM
- TGI [50]: 14.6 µM
- GI50 [51]: 5.55 µM
- TGI [51]: 44.6 µM
- GI50 [52]: 3.31 µM
- TGI [52]: 24.6 µM
- GI50 [53]: 2.39 µM
- TGI [53]: 16 µM
- GI50 [54]: 2.84 µM
- TGI [54]: 15.2 µM
- GI50 [55]: 2.3 µM
- TGI [55]: 27 µM
- GI50 [56]: 1.14 µM
- TGI [56]: 4.6 µM
- GI50 [57]: 5.58 µM
- TGI [57]: 21.2 µM
- GI50 [58]: 2.73 µM
- TGI [58]: 15.8 µM
- GI50 [59]: 0.657 µM
- TGI [59]: 2.31 µM
